Patent US20100009935A1, “RESISTANCE-REPELLENT […] INHIBITORS” (priority 2002, published 2010)
Read-outs that look alike come from different tables or passages of the source.

Tests used:
Type in all cases: cell-based
[1] = test system: HIV-1Ba-L; assay: microbe, parasite or virus in culture; settings: Human immunodeficiency virus 1, 168 h, PBNC (PHA-PBMC), p24 production, day 7, read-out: MEAN IC50 (μM) ± SDs
Description: (§1) The sensitivities of HIV-1LAI, HIV-1Ba-L, HIV-2EHO and the primary HIV-1 isolates against various drugs were determined as previously described with minor modifications (Shiraska et al., Proc. Natl. Acad. Sci. USA, 92, 2398-2402 (1995)).

[2] = test system: HIV-1LAI; assay: microbe, parasite or virus in culture; settings: day 7, read-out: MEAN IC50 (μM) ± SDs
Description: as §1

[3] = test system: HIV-2EHO; assay: Drug sensitivity of HIV-2EHO in MT-2 cells, MTT assay; settings: Human immunodeficiency virus 2, MT2, 168 h, HT-2 (footnote: MT-2 cells), day 7, read-out: MEAN IC50 (μM) ± SDs
Description: as §1

[4] = test system: HIV-1ERS104pre (wild-type clinical strain); assay: PI sensitivity of wild-type clinical isolate in PHA-PBMC, p24; settings: for IC50: Human immunodeficiency virus 1, read-out: IC50 μM; for FOLD CHANGE of IC50: wild type HIV-1ERS104pre, reference (=1)
[5] = test system: HIV-1 clinical isolate 1; assay: PI sensitivity of PI-resistant clinical isolate 1 in PHA-PBMC, p24; settings: for IC50: Human immunodeficiency virus 1, isolate 1: L10I, K14R, L33I, N36I, H46I, F53L, K55R, I62V, L63P, A71V, G73S, V82A, L90M, I93L, PHA-PBMC, p24; for FOLD CHANGE of IC50: isolate 1 compared to HIV-1wt (HIV-1ERS104pre)
[6] = test system: HIV-1 clinical isolate 2; assay: PI sensitivity of PI-resistant clinical isolate 2 in PHA-PBMC, p24; settings: for IC50: Human immunodeficiency virus 1, isolate 2: L10I, I15V, K20R, N36I, H46L, I54V, K55R, I62V, L63P, K70D, V82A, L89N, PHA-PBMC, p24; for FOLD CHANGE of IC50: isolate 2 compared to HIV-1wt (HIV-1ERS104pre)
[7] = test system: HIV-1 clinical isolate 3; assay: PI sensitivity of PI-resistant clinical isolate 3 in PHA-PBMC, p24; settings: for IC50: Human immunodeficiency virus 1, isolate 3: L10I, I15V, E35D, N37E, K45R, I54V, L63P, A71V, V82I, L90N, I93L, C95F, PHA-PBMC, p24; for FOLD CHANGE of IC50: isolate 3 compared to HIV-1wt (HIV-1ERS104pre)
[8] = test system: HIV-1 clinical isolate 4; assay: PI sensitivity of PI-resistant clinical isolate 4 in PHA-PBMC, p24; settings: for IC50: Human immunodeficiency virus 1, isolate 4: L10I, V11I, T12E, I15V, L19I, B41K, H46L, L63P, A71T, V82A, L90M, PHA-PBMC, p24; for FOLD CHANGE of IC50: isolate 4 compared to HIV-1wt (HIV-1ERS104pre)
[9] = test system: HIV-1 clinical isolate 5; assay: PI sensitivity of PI-resistant clinical isolate 5 in PHA-PBMC, p24; settings: for IC50: Human immunodeficiency virus 1, isolate 5: L10I, K43T, N46L, I54L, L63P, A71T, V82A, L90N, D92K, PHA-PBMC, p24; for FOLD CHANGE of IC50: isolate 5 compared to HIV-1wt (HIV-1ERS104pre)
[10] = test system: HIV-1 clinical isolate 6; assay: PI sensitivity of PI-resistant clinical isolate 6 in PHA-PBMC, p24; settings: for IC50: Human immunodeficiency virus 1, isolate 6: L10I, K14R, B41K, H46L, I54V, L63P, A71V, V82A, L90M, I93L, PHA-PBMC, p24; for FOLD CHANGE of IC50: isolate 6 compared to HIV-1wt (HIV-1ERS104pre)
[11] = test system: HIV-1 clinical isolate 7; assay: PI sensitivity of PI-resistant clinical isolate 7 in PHA-PBMC, p24; settings: for IC50: Human immunodeficiency virus 1, isolate 7: L10I, L24I, L33F, E35D, H36I, H37S, N46L, I54V, R57K, I62V, L63P, A71V, G73S, V82A, PHA-PBMC, p24; for FOLD CHANGE of IC50: isolate 7 compared to HIV-1wt (HIV-1ERS104pre)
[12] = test system: HIV-1 clinical isolate 8; assay: PI sensitivity of PI-resistant clinical isolate 8 in PHA-PBMC, p24; settings: for IC50: Human immunodeficiency virus 1, isolate 8: L10R, H37D, N46I, I62V, L63P, A71V, G73S, V77I, V82T, L90M, I93L, PHA-PBMC, p24; for FOLD CHANGE of IC50: isolate 8 compared to HIV-1wt (HIV-1ERS104pre)
[13] = test system: highly cross-resistant HIV-1 strains derived from AIDS patients
[14] = test system: HIV-1NL4-3; settings: for FOLD CHANGE of IC50: HIV-1NL4-3, reference (=1); for IC50: Human immunodeficiency virus 1, MT2, 168 h, HIV-1NL4-3 (wild type), MT-2 cells, MTT assay, day 7
[15] = test system: HIV-1UIC-P62; assay: PI sensitivity of compound 1-selected HIV-1UIC-P62 in MT-2 cells, MTT assay; settings: Human immunodeficiency virus 1, MT2, 168 h, HIV-1UIC-P62 (L10F, A28S, M46I, I50V, A71V, N88D), day 7
[16] = test system: HIV-1APV-P30; assay: PI sensitivity of APV-selected HIV-1APV-P30 in MT-2 cells, MTT assay; settings: for FOLD CHANGE of IC50: HIV-1APV-P30 compared to HIV-1NL4-3 (wild type); for IC50: Human immunodeficiency virus 1, MT2, 168 h
[17] = Human immunodeficiency virus 1, 168 h, PBMC (PHA-PBMC), p24 production
[18] = Human immunodeficiency virus 1, MT2, 168 h, HT-2 (footnote: MT-2 cells), MTT assay
[19] = multidrug resistant patient isolates

| Structure (SMILES) | IC50 [1] | IC50 [2, 17] | IC50 [2, 18] | IC50 [3] | IC50 [4] | FOLD CHANGE of IC50 [4] | IC50 [5] | FOLD CHANGE of IC50 [5] | IC50 [6] | FOLD CHANGE of IC50 [6] | IC50 [7] | FOLD CHANGE of IC50 [7] | IC50 [8] | FOLD CHANGE of IC50 [8] | IC50 [9] | FOLD CHANGE of IC50 [9] | IC50 [10] | FOLD CHANGE of IC50 [10] | IC50 [11] | FOLD CHANGE of IC50 [11] | also measured |
| --- | --- | --- | --- | --- | --- | --- | --- | --- | --- | --- | --- | --- | --- | --- | --- | --- | --- | --- | --- | --- | --- |
| CC(C)(C)NC(=O)[C@@H]1CN(Cc2cccnc2)CCN1C[C@@H](O)C[C@@H](Cc1ccccc1)C(=O)N[C@H]1c2ccccc2C[C@H]1O [IDV, Indinavir] | 0.017 ± 0.011 µM | 0.015 ± 0.004 µM | 0.019 ± 0.009 µM | 0.01 ± 0.004 µM | 0.013 µM | (1) fold | > 1000 nM | (>77) fold | 490 nM | (38) fold | 490 nM | (38) fold | 210 nM | (16) fold | > 1000 nM | (>77) fold | 300 nM | (23) fold | > 1000 nM | (>77) fold | IC50 [12]: 550 nM; FOLD CHANGE of IC50 [12]: (42) fold; antiviral activity against patient isolates with multiple mutations compared with wild type HIV strains (in words) [13]: dramatically less potent; FOLD CHANGE of IC50 [14]: (1) fold; IC50 [14]: 11 nM; IC50 [15]: 80 nM; FOLD CHANGE of IC50 [16]: (30) fold; IC50 [16]: 320 nM |
| CC(C)c1nc(CN(C)C(=O)N[C@H](C(=O)N[C@@H](Cc2ccccc2)C[C@H](O)[C@H](Cc2ccccc2)NC(=O)OCc2cncs2)C(C)C)cs1 [RTV, Ritonavir] | 0.038 ± 0.02 µM | 0.04 ± 0.008 µM | 0.041 ± 0.005 µM | 0.35 ± 0.025 µM | 0.044 µM | (1) fold | > 1000 nM | (>23) fold | > 1000 nM | (>23) fold | > 1000 nM | (>23) fold | > 1000 nM | (>23) fold | > 1000 nM | (>23) fold | > 1000 nM | (>23) fold | > 1000 nM | (>23) fold | IC50 [12]: > 1000 nM; FOLD CHANGE of IC50 [12]: (>23) fold; antiviral activity against patient isolates with multiple mutations compared with wild type HIV strains (in words) [13, 19]: dramatically less potent; FOLD CHANGE of IC50 [14]: (1) fold; IC50 [14]: 38 nM; IC50 [15]: 55 nM; FOLD CHANGE of IC50 [16]: (>26) fold; IC50 [16]: > 1000 nM |
| OC[C@@H]1CC[C@H](n2cnc3c(O)ncnc32)O1 [ddI, 2′,3′-dideoxyinosine] | 1.5 ± 1.1 µM | 0.62 ± 0.02 µM | 3.4 ± 0.2 µM | 2.8 ± 0.6 µM |  |  |  |  |  |  |  |  |  |  |  |  |  |  |  |  |  |
| CC(C)(C)NC(=O)[C@@H]1C[C@@H]2CCCC[C@@H]2CN1C[C@@H](O)[C@H](Cc1ccccc1)NC(=O)[C@H](CC(N)=O)NC(=O)c1ccc2ccccc2n1 [SQV, Saquinavir] | 0.014 ± 0.01 µM | 0.011 ± 0.005 µM | 0.023 ± 0.002 µM | 0.004 ± 0.0005 µM | 0.03 µM | (1) fold | 270 nM | (27) fold | 37 nM | (4) fold | 36 nM | (4) fold | 33 nM | (3) fold | 310 nM | (31) fold | 190 nM | (19) fold | 120 nM | (12) fold | IC50 [12]: 42 nM; FOLD CHANGE of IC50 [12]: (4) fold; level of resistance (fold), range over the isolates ([13]; compared to wild-type clinical strain HIV-1ERS104pre): 3-31 fold; antiviral activity against patient isolates with multiple mutations compared with wild type HIV strains (in words) [13, 19]: dramatically less potent; FOLD CHANGE of IC50 [14]: (1) fold; IC50 [14]: 19 nM; IC50 [15]: 10 nM; FOLD CHANGE of IC50 [16]: (2) fold; IC50 [16]: 35 nM |
